Like-named read-outs stand apart in the source and are kept apart here.
Experiments:
[1] = Coenzyme Q10 added separately to aqueous solutions of the other composition ingredients; assay type: physicochemical; conditions: 5 mg coenzyme Q10 added to 100 mL of 1%, 2.5% and 5% aqueous solutions of all ingredients except coenzyme Q10
Procedure: To test this theory a 1%, 2.5% and 5% aqueous solutions of the all the composition ingredients except coenzyme Q10 were made in 100 mL volumetric flasks. A 5 mg aliquot of coenzyme Q10 was then separately added to each of the flasks and shaken.

[2] = Water solubility of coenzyme Q10 alone; assay type: physicochemical
[3] = as disclosed in WO 95/05164; cited from earlier work

- water solubility [2]: not water soluble at any level
SMILES: COC1=C(OC)C(=O)C(C/C=C(\C)CC/C=C(\C)CC/C=C(\C)CC/C=C(\C)CC/C=C(\C)CC/C=C(\C)CC/C=C(\C)CC/C=C(\C)CC/C=C(\C)CCC=C(C)C)=C(C)C1=O [coenzyme Q10, 2,3-dimethoxy-5-methyl-6-decaprenyl-1,4-benzoquinone]
- behaviour in ultra sound bath [1]: dispersed then settled to the bottom of the flask
- dissolution or dispersion after shaking [1]: did not go into solution or form a dispersion
- water solubility [3]: practically insoluble in water

From patent US6403116B1, “Coenzyme Q10 formulation” (Triarco Inductries, Inc., priority 2000, dated 2002)
